These results are taken from US6004952A, “Micacocidin derivatives” (Shinogi & Co., Ltd., priority 1996, dated 1999).

In series [1] the test system is M. gallisepticum. In words: In vivo evaluation test for M. gallisepticum in chickens (air-sac lesions). The note with it: 6 chickens tested.
The test system of another series is Candida albicans. In words: Antifungal activity, micro-liquid dilution method, Candida albicans. In kind it is cell-based, Candida albicans strain Ca-15. The note with it: Candida albicans, 24 h, 30° C., read-out: Antifungal activities: IC50. How it is done: (§1) Antifungal activities of the compounds to Candida albicans (strain Ca-15) and Asperilhm fumigatus (strain MA), representative pathogenic fungi, were determined by micro-liquid dilution method using 96-well microplates. A fungal suspension stored under freezing was adjusted to 1×1 O^5 CFU/ml by medium, of which 100 μl portions were charged into each well. The compound of the present invention was dissolved in dimethylsulfoxide (DMSO). Using the resultant solution, 2-fold dilution series were prepared together with the fungal suspension charged into the wells. YNB medium and RPMI medium were used. After cultured for 24 hours at 30° C., evaluation was performed by detecting the turbidity (wave length: 595 nm) using microplate reader.

Another series deals with Aspergillus fumigatus. Description: Antifungal activity, micro-liquid dilution method, Aspergillus fumigatus. In kind it is cell-based, Aspergillus fumigatus strain MA. The note with it: Aspergillus fumigatus, 24 h, 30° C., read-out: Antifungal activities: IC50. How it is done: as §1
Series [2] can be described thus: Cytotoxicity to primary chicken kidney culture cells. In kind it is cell-based. The note with it: primary chicken kidney cells.
The subject of the next series is Eimeria tenella. In words: Growth inhibition activities to avian coccidium in primary chicken kidney cells. The note with it: Eimeria tenella; more than 80% of suppression rate regarded as effective; read-out: Effective dose (growth inhibition). In kind it is cell-based. How it is done: The kidneys of SPF new born chicken was sterilely removed, which was treated with trypsin and the resultant primary kidney cells were cultured in 24-well plate. Monolayer culture after cultured for 3 days was treated simultaneously with compounds adjusted to predetermined concentration and sporozoit obtained by artificial excystation, which was cultured a 40° C. Premature and mature schizonts were observed under microscope, and the growth inhibition activities (suppression rate) for each treatment group were calculated at a proportion of the number of schizonts for the sporozoit-inoculated, compound-untreated control group (100%).

The subject of series [3] is mice spleen cells. In words: Suppression of reaction of mice spleen cells to lypopolysaccaride (LPS), in vitro (MTT). It counts as cell-based, BDF1 mice. As to the method: (§2) To each well of 96 well microtiter plate were added 5×10^5 spleen cells of BDF1 mice suspended in 0.1 ml of RPMI 1640 medium supplemented with 10% bovine fetus serum (supplemented with 2 mM sodium hydrogen carbonate, 50 Units/ml of penicillin, 50 μg/ml of streptomycin, and 5×10^-5 M of 2-mercaptoethanol), and then, 5 μg/ml of Concanavalin A (Con A) or 10 μg/ml of lypopolysaccaride (LPS) and various concentrations of test substance, of which final volume was adjusted to 0.2 ml. Test substances were dissolved in dimethylsulfoxide (DMSO), diluted with RPMI 1640 stated above, and added to the wells so that final concentration of the substances becomes less than 10000 ng/ml. The 96-well microtiter plates were cultured at 37° C. for 3 days in an incubator which was maintained at the humidity of 100%, 5% of carbon dioxide and 95% of air. After cultivation is completed, […] of 6 mg/ml solution of MTT {3-(4,5-dimethylthiazol-2yl)-2,5 diphenyltetrazoliumbromide} (Sigma) is added to each well, which is cultured at 37° C. for […] under the same conditions. After cultivation is completed, formazan formed is dissolved by adding 50 μl of a solution of 20% dodecyl sodium sulfonate (SDS) in 0.02N hydrochloric acid and kept standing at 37° C. for 24 hours. The absorbance (OD) of the formazan which was produced in proportion to the number of alive cells, was determined by using immunoreader equipped with 570 nm filter (see The Journal of Immunological Methods, Vol.65, 55-63, 1983).
(§3) Cell growth inhibition rate and IC50 value were calculated according to the correlation between the concentration and the absorbance for each substance.

Series [4] concerns mice spleen cells. Description: Suppression of reaction of mice spleen cells to Concanavalin A, in vitro (MTT). In kind it is cell-based, BDF1 mice. As to the method:
as §2, §3

Another series has as its system M. pneumoniae. Description: MIC, liquid dilution method, Mycoplasma pneumoniae. The note with it: Mycoplasmoides pneumoniae.
The test system of the next series is M. hyopneumoniae. Description: MIC, liquid dilution method, Mycoplasma hyopneumoniae. The note with it: Mesomycoplasma hyopneumoniae.
The next series concerns Mycoplasma. Description: MIC to Mycoplasmas (summary in words). It counts as cell-based.
For series [5], the system named is M. gallisepticum. In words: MIC, liquid dilution method, Mycoplasma gallisepticum. The note with it: Mycoplasmoides gallisepticum.

One may read the IC50 as the concentration needed to halve the response being measured. A word on the MIC: it is the lowest concentration that inhibits growth of the organism. A higher MIC goes with a need for much substance.

≈ marks a conversion by molar mass, not a printed value. Where two headings read alike, the source gives them in different places. Where only a bound is given, the exact number is not on record here.

For the compound `CN(C)[C@@H]1C(O)=C(C(N)=O)C(=O)[C@@]2(O)C(O)=C3C(=O)c4c(O)ccc(Cl)c4[C@@](C)(O)[C@H]3C[C@@H]12` [CTC, chlortetracycline, reference compound], in the series on M. gallisepticum [1] (50 mg/kg × 1, orally), the “air-sac lesions (the number of chickens): (+) slight” value (“air-sac lesions … (+) slight” for short) came to 0, the “air-sac lesions (the number of chickens): (++-+++) moderate to severe” value (“air-sac lesions … to severe” for short) was found to be 3, the “air-sac lesions (the number of chickens): (-) non” value (“air-sac lesions … (-) non” below) turned out to be 3 and the “number of chickens having lesions” value is recorded as 3. Further, in the series with M. gallisepticum [1] (100 mg/kg × 1, orally), the “air-sac lesions … (+) slight” value is 0, the “air-sac lesions … to severe” value was 1, the “air-sac lesions … (-) non” value came to 5 and the “number of chickens having lesions” value stood at 1. Moreover, in the series on M. gallisepticum [1] (200 mg × 1, orally), the “air-sac lesions … (+) slight” value turned out to be 0, the “air-sac lesions … to severe” value was 1, the “air-sac lesions … (-) non” value is on record as 5 and the “number of chickens having lesions” value is reported as 1.

Consider `CCCCCc1cccc(O)c1C1=NC(C2SCC(C(O)C(C)(C)C3=NC(C)(C(=O)O)CS3)N2C)CS1` (centres unmarked) [Compound 2], for which the IC50 with Candida albicans (RPMI medium) turned out to be 1.6 µg/mL (≈ 2.83 µM); with Candida albicans (YNB medium), 6.3 µg/mL (≈ 11.1 µM); with Aspergillus fumigatus (RPMI medium), 0.2 µg/mL (≈ 0.353 µM); in the series with Aspergillus fumigatus (YNB medium), 3.2 µg/mL (≈ 5.66 µM). In addition, the MCC in [2] amounted to 10 µg/mL. Besides, the minimal effective concentration with Eimeria tenella was found to be 2.5 µg/mL.

For `CCCCCc1cccc(O)c1C1=NC(C2SCC(C(OC(C)=O)C(C)(C)C3=NC(C)(C(=O)O)CS3)N2C)CS1` (centres unmarked) [Compound 3], the MCC in series [2] is over 10 µg/mL. Besides, the minimal effective concentration with Eimeria tenella was 10 µg/mL.

For the compound `CCCCCc1cccc(O)c1C1=NC(C2SCC(C(OCc3ccc(Cl)cc3)C(C)(C)C3=NC(C)(C(=O)O)CS3)N2C)CS1` (centres unmarked) [Compound 6], the “suppression of the reaction to LPS of spleen cells” value with mice spleen cells [3] is on record as “suppressed”. In addition, the inhibition at 0.156 µg/mL in the series with mice spleen cells [3] (Mus musculus, 72 h, LPS, 156 ng/ml, read-out: Suppression rate) turned out to be 17.7%; in the series with mice spleen cells [4] (Mus musculus, 72 h, Con A, 156 ng/ml, read-out: Suppression rate), 0%. The inhibition at 0.312 µg/mL in the series with mice spleen cells [3] (Mus musculus, 72 h, LPS, 312 ng/ml, read-out: Suppression rate) amounted to 24.4%; with mice spleen cells [4] (Mus musculus, 72 h, Con A, 312 ng/ml, read-out: Suppression rate), 16.5%. Moreover, the inhibition at 0.625 µg/mL with mice spleen cells [3] (Mus musculus, 72 h, LPS, 625 ng/ml, read-out: Suppression rate) was 84.3%; in the series on mice spleen cells [4] (Mus musculus, 72 h, Con A, 625 ng/ml, read-out: Suppression rate), 87.4%. The inhibition at 1.25 µg/mL in the series with mice spleen cells [3] (Mus musculus, 72 h, LPS, 1250 ng/ml, read-out: Suppression rate) was determined as 98%; with mice spleen cells [4] (Mus musculus, 72 h, Con A, 1250 ng/ml, read-out: Suppression rate), 98.6%. Also, the inhibition at 2.5 µg/mL in the series with mice spleen cells [3] (Mus musculus, 72 h, LPS, 2500 ng/ml, read-out: Suppression rate) is 105%; in the series on mice spleen cells [4] (Mus musculus, 72 h, Con A, 2500 ng/ml, read-out: Suppression rate) it was 102%. The half-maximal inhibitory concentration (IC50) in the series with mice spleen cells [3] (Mus musculus, LPS) is 0.368 µg/mL (≈ 0.533 µM); with mice spleen cells [4] (Mus musculus, Con A), 0.399 µg/mL (≈ 0.578 µM). The “suppression of the reaction to Con A of spleen cells” value in the series with mice spleen cells [4] was “suppressed”.

In the case of `CCCCCc1cccc(OC(C)=O)c1C1=NC(C2SCC(C(OC(C)=O)C(C)(C)C3=NC(C)(C(=O)OC)CS3)N2C)CS1` (centres unmarked) [Compound 10], in series [2], the MCC was over 10 µg/mL. Further, the minimal effective concentration with Eimeria tenella is over 10 µg/mL.

Consider `CCCCCc1cccc(OCc2ccc(Cl)cc2)c1C1=NC(C2SCC(C(O)C(C)(C)C3=NC(C)(C(=O)OC)CS3)N2C)CS1` (centres unmarked) [Compound 11], for which, in [2], the MCC is over 10 µg/mL. In addition, in the series on Eimeria tenella, the minimal effective concentration turned out to be 10 µg/mL.

As to `CCCCCc1cccc(O)c1C1=NC(C2SCC(C(O)C(C)(C)C3=NC(C)(C(=O)OC)CS3)N2C)CS1` (centres unmarked) [Compound 12], the minimal inhibitory concentration (MIC) against M. pneumoniae is at most 0.00625 µg/mL; in the series with M. hyopneumoniae, at most 0.025 µg/mL; against M. gallisepticum [5], 0.2 µg/mL (≈ 0.345 µM). Further, in the series on Mycoplasma, the “MICs to Mycoplasmas” value is recorded as “low MICs”. Besides, the MCC in series [2] is over 10 µg/mL. The minimal effective concentration in the series on Eimeria tenella worked out at 0.625 µg/mL.

`CCCCCc1cccc(O)c1C1=NC(C2SCC(C(OCc3ccc(Cl)cc3)C(C)(C)C3=NC(C)(C(=O)OC)CS3)N2C)CS1` (centres unmarked) [Compound 13] had an MCC in series [2] of over 10 µg/mL. In the series with Eimeria tenella, the minimal effective concentration is over 10 µg/mL.

With `CCCCCc1cccc(OCc2ccc(Cl)cc2)c1C1=NC(C2SCC(C(OCc3ccc(Cl)cc3)C(C)(C)C3=NC(C)(C(=O)OCc4ccc(Cl)cc4)CS3)N2C)CS1` (centres unmarked) [Compound 21], the MCC in [2] was over 10 µg/mL. In addition, the minimal effective concentration in the series on Eimeria tenella was over 10 µg/mL.

For `CCCCCc1cccc(O)c1C1=NC(C2SCC(C(O)C(C)(C)C3=NC(C)(C(=O)OCc4ccc(Cl)cc4)CS3)N2C)CS1` (centres unmarked) [Compound 22], the MIC in the series with M. pneumoniae was 0.39 µg/mL (≈ 0.565 µM); against M. hyopneumoniae, 0.1 µg/mL (≈ 0.145 µM); against M. gallisepticum [5] it was over 3.13 µg/mL. In series [2], this compound had an MCC of over 10 µg/mL. Besides, the minimal effective concentration with Eimeria tenella is 2.5 µg/mL.

For `CCCCCc1cccc(O)c1C1=NC(C2SCC(C(O)C(C)(C)C3=NC(C)(C(=O)N(C)O)CS3)N2C)CS1` (centres unmarked) [Compound 25], the IC50 was 6.3 µg/mL (≈ 10.6 µM) with Candida albicans (RPMI medium), 50 µg/mL (≈ 84.1 µM) with Candida albicans (YNB medium), 0.2 µg/mL (≈ 0.336 µM) in the series on Aspergillus fumigatus (RPMI medium) and 50 µg/mL (≈ 84.1 µM) in the series on Aspergillus fumigatus (YNB medium).

Take `CCCCCc1cccc(O)c1C1=NC(C2SCC(C(O)C(C)(C)C3=NC(C)(C(=O)NC(C)C(=O)OC)CS3)N2C)CS1` (centres unmarked) [Compound 28]: the figures for the minimal inhibitory concentration (MIC) in the series on M. pneumoniae, in the series on M. hyopneumoniae and with M. gallisepticum [5] were 0.05 µg/mL (≈ 0.0768 µM), 0.1 µg/mL (≈ 0.154 µM) and 0.39 µg/mL (≈ 0.599 µM), respectively. Moreover, the “MICs to Mycoplasmas” value against Mycoplasma is listed as “low MICs”. For the same compound, the MCC in [2] was over 10 µg/mL. In the series with Eimeria tenella, the minimal effective concentration was 10 µg/mL.

Turning to `CCCCCc1cccc(O)c1C1=NC(C2SCC(C(O)C(C)(C)C3=NC(C)(C(=O)NCCO)CS3)N2C)CS1` (centres unmarked) [Compound 30], the figures for the minimum inhibitory concentration (MIC) with M. pneumoniae, in the series with M. hyopneumoniae and in the series with M. gallisepticum [5] were 0.2 µg/mL (≈ 0.328 µM), 0.39 µg/mL (≈ 0.641 µM) and 0.78 µg/mL (≈ 1.28 µM), respectively. The compound also came in with an MCC in series [2] of over 10 µg/mL. The minimal effective concentration in the series on Eimeria tenella came out at 2.5 µg/mL.

Regarding `CCCCCc1cccc(O)c1C1=NC(C2SCC(C(O)C(C)(C)C3=NC(C)(C(N)=O)CS3)N2C)CS1` (centres unmarked) [Compound 31], the minimum inhibitory concentration (MIC) came to 0.2 µg/mL (≈ 0.354 µM) with M. pneumoniae, 0.2 µg/mL (≈ 0.354 µM) against M. hyopneumoniae and 0.39 µg/mL (≈ 0.69 µM) against M. gallisepticum [5]. The same compound yielded an MCC in [2] of 10 µg/mL.

As for `CCCCCc1cccc(O)c1C1=NC(C2SCC(C(O)C(C)(C)C3=NC(C)(CO)CS3)N2C)CS1` (centres unmarked) [Compound 32], the MIC turned out to be 0.025 µg/mL (≈ 0.0453 µM) in the series on M. pneumoniae, 0.05 µg/mL (≈ 0.0906 µM) against M. hyopneumoniae and 0.39 µg/mL (≈ 0.707 µM) in the series on M. gallisepticum [5]. This compound registered an MCC in series [2] of over 10 µg/mL. Also, in the series with Eimeria tenella, the minimal effective concentration stood at 10 µg/mL.
